Data: US20130231291A1, “FERMENTED SOYA BASED MIXTURE COMPRISING ISOFLAVONES- AGLICONES, EQUOL AND LUNASIL, PROCESS FOR THE PREPARATION AND USES THEREOF IN FOOD, MEDICAL AND COSMETIC FIELDS” (priority 2010, published 2013)

Key:
Type in all cases: cell-based, human
Caco-2/TC7 cells [1] = experiment: Neutral Red uptake cytotoxicity assay; settings: standard chemical compounds 5-100 μM; vs methanol and DMSO negative control
Procedure: Human origin Caco-2 cells (clone TC7) have been cultured in Dulbecco (DMEM) medium, added with bovine foetal serum (10%), not essential amino acids (1%), gentamycin/streptomycin (50 μg/ml), glutamine (2 mM) and 4-2-hydroxyethyl-1-piperazinyl-ethanesulfonic acid (1%) (Di Cagno et al., 2010. Quorum sensing in sourdough Lactobacillus plantarum DC400: induction of plantaricin A (PlnA) under co-cultivation with other lactic acid bacteria and effect of PlnA on bacterial and Caco-2 cells. Proteomics in press). The cells viability has been determined by uptake assay of Neutral Red dye (Balls et al., 1987. Approaches to validation alternative methods in toxicology. In: Goldber A. M. (Ed). N.Y. Academic Press pp. 45-58). After treatment for 24-72 h with the different preparations, the cells have been washed with PBS buffer and incubated for 4 h at 37° C. with Neutral Red solution (33 mg/l). […] Plate reading has been carried out using Novapath reader (Biorad, Hercules, Calif.) (Di Cagno et al., 2010).
With the purpose to test immunomodulating properties of isoflavones-aglicones contained in soya milk produced from biological soya flour (OFS), cytotoxicity against Caco-2/TC7 cells by standard chemical compounds (equol, daidzein, genistein and glycitein) at concentrations of 5-100 μM using Neutral Red (NR) uptake assay, firstly has been evaluated.

Caco-2/TC7 cells [2] = experiment: Nitric oxide (NO) release, Griess reagent; settings: pre-treated 24 h at 10 μM (soya milk: equol 10 μM), then IFN-γ 1000 U/ml + LPS 100 ng/ml for 24 h
Procedure: The cells have been pre-treated for 24 h with chemical compounds (10 μM) used as standards (equol, daidzein, genistein and glycitein) and soya milk, obtained from biological soya flour, not fermented or fermented using mixed selected starter, diluted at equol final concentration of 10 μM and sterile filtered. Successively, the cells have been stimulated with γ-interpheron (IFN-γ) (1000 U/ml) and lipopolysaccharide (LPS) (100 ng/ml) for 24 h. DMEM culture medium containing DMSO (1%, v/v) or methanol (0.5%, v/v) has been used as negative control. Data are the average of three triplicate experiments. Asterisk indicates meaningful differences (P<0.01) compared to negative control.
The nitric oxide release (NO) from Caco-2/TC7 cells has been determined by measuring the oxidation products, i.e. nitrite and nitrate. After incubation with the different preparations, the supernatant of cell cultures has been mixed with an equal volume of Griess reagent (1%, p/v, sulfanilic acid in 0.5 M HCl and 0.1%, p/v, N-1-naphthylethylendiamine hydrochloride). After 30 min of incubation at room temp., the absorbance at 540 nm has been measured Nitrite concentration has been determined with reference to standard curve prepared with sodium nitrite.
Preliminarily, Caco-2/TC7 cells have been treated for 24 h at concentration of 10 μM with the OFS fermented soya milk and diluted at equol final concentration of 10 μM or with not fermented soya milk. […] Successively, Caco-2/TC7 cells have been stimulated with INF-γ (1000 U/ml) e LPS (100 ng/ml) per 24 h.

Caco-2/TC7 cells [3] = experiment: TEER of Caco-2/TC7 cell layer; settings: for TEER of cells stimulated with IFN-γ: IFN-γ 1000 U/ml, 24, 48 and 72 h, soya milk diluted at equol 10 μM
Procedure: The incubation has been carried out in the presence of γ-interpheron (IFN-γ) (1000 U/ml (-▪-); IFN-γ and soya milk, obtained from biological soya flour, not fermented (-Δ-) or fermented with the selected mixed starter, diluted at equol final concentration of 10 μM and sterile filtered. (-x-). DMEM culture medium has been used as negative control (-♦-). Data are the average of three triplicate experiments. Asterisk indicates meaningful differences (P<0.01) compared to negative control.
For TEER measurement Caco-2/TC7 cells have been inoculated (7.5×10^4 cell/ml) in a microplate container with 24 […] and a polyethylene filter (0.4 μm pore size). Before the treatment, the cells have been incubated for 21 days at 37° C. […] Integrity of cellular layer then has been determined by means of TEER measurements.
Under culture conditions of this study, Caco-2/TC7 cells develop morphological and functional characteristics of enterocytes, including tight intercellular junctions, integrity thereof being measured by TEER determination. Preliminarily, TEER has been determined in the presence of standard chemical compounds (10-100 μM), fermented OFS soya milk and diluted at equol concentration of 10 μM, or not fermented OFS soya milk. […] Treatments of Caco-2/TC7 cells with INF-γ (1000 U/ml) favoured a remarkable decrease (P<0.003) of TEER value (FIG. 6).

[4] = test system: interleukin-8 (IL-8) from Caco-2/TC7 cells; experiment: Interleukin-8 release by ELISA after IL-1β stimulation; settings: IL-1β 2 ng/ml for 24 h, then 24 h treatment at 10 μM (soya milk: equol 10 μM)
Procedure: DMEM culture medium containing DMSO (1%, v/v) or methanol (0.5%, v/v) has been used as negative control. Data are the average of three triplicate experiments. Asterisk indicates meaningful differences (P<0.01) compared to negative control.
For measurement of released interleukin-8 (IL-8) Caco-2/TC7 cells have previously been incubated (24 h) with interleukin-1β and then stimulated for further 24 h with the different preparations. The synthesis of pro-inflammatory IL-8 has been determined by ELISA assay (Bender MedSystems). The quantification has been carried out using a standard curve according to .kit instructions
Interleukin-8 (IL-8) is a member of C—X—C chemokine family and plays a fundamental role in activation of neutrophil cells, thus initiating the inflammatory response. When Caco-2/TC7 cells are subjected to a treatment with inteleukin-1β (2 ng/ml) has been observed a meaningful increment (P<0.001) of IL-8 synthesis (FIG. 7).

| Compound | cell proliferation (Neutral Red uptake) (Caco-2/TC7 cells [1]) | NO release after IFN-γ and LPS stimulation (Caco-2/TC7 cells [2]) | TEER of cells stimulated with IFN-γ (Caco-2/TC7 cells [3]) | IL-8 synthesis [4] | effects on TEER without IFN-γ (Caco-2/TC7 cells [3]; equol at 100 μM, 72 h of incubation) |
| --- | --- | --- | --- | --- | --- |
| O=c1c(-c2ccc(O)cc2)coc2cc(O)cc(O)c12 [genistein] | did not affect significantly cell proliferation | considerable inhibition | trend similar to fermented OFS soya milk | did not resulted in (P<0.10) a decrement |  |
| COc1cc2c(=O)c(-c3ccc(O)cc3)coc2cc1O [glycitein] |  | considerable inhibition | trend similar to fermented OFS soya milk | did not resulted in (P<0.10) a decrement |  |
| Oc1ccc([C@H]2COc3cc(O)ccc3C2)cc1 [equol] |  | inhibited in a marked manner | trend similar to fermented OFS soya milk | meaningful decrement | exception |
| O=c1c(-c2ccc(O)cc2)coc2cc(O)ccc12 [daidzein] |  | significantly increased | has not interfered with the negative effect caused by INF-γ | meaningful decrement |  |
